The values that follow come from US6534530B1, “Antipicornaviral compounds and compositions, their pharmaceutical uses, and materials for their synthesis” (Agouron Pharmaceuticals, Inc., priority 1999, dated 2003).

Data set [1] concerns the target T1, recombinant rhinovirus 3C protease, serotype 14 (Human rhinovirus 14, UniProt P03303).
T1 construct: Recombinant rhinovirus 3C proteases; made in house
Briefly: Inhibition of rhinovirus 3C protease (FRET assay), serotype 14. In kind it is biochemical. As to the method: (§1) Stock solutions (50 mM, in DMSO) of various compounds were prepared; dilutions were in the same solvent. Recombinant rhinovirus 3C proteases (see Birch et al., “Purification of recombinant human rhinovirus 14 3C protease expressed in Escherichia coli,” Protein Expr. Pur. (1995), vol. 6(5), 609-618) from serotypes 14, 16, and 2 were prepared by the following standard chromatographic procedures: (1) ion exchange using Q Sepharose Fast Flow from Pharmacia; (2) affinity chromatography using Affi-Gel Blue from Biorad; and (3) sizing using Sephadex G-100 from Pharmacia. Each assay sample contained 2% DMSO, 50 mM tris pH 7.6, 1 mM EDTA, a test compound at the indicated concentration, approximately 1 μM substrate, and 50-100 nM protease. The kobs/I values were obtained from reactions initiated by addition of enzyme rather than substrate. RVP activity was measured in the fluorescence resonance energy transfer assay. The substrate was (N-terminal) DABCYL-([…]-EDANS. In the uncleaved peptide, the EDANS fluorescence was quenched by the proximal DABCYL moiety. When the peptide was cleaved, the quenching was relieved, and activity was measured as an increase in fluorescence signal. The tabulated data in the column designated kobs/[I] were measured from progress curves in enzyme start experiments.

A further data set has as its system HRV-14. Briefly: Antirhinoviral H1-HeLa cell culture assay (XTT), HRV-14. In kind it is cell-based, human rhinovirus. (Formazan colour is commonly taken as a measure of viable cells.)
The nature of the next data set: in vitro. Conditions: human, mock-infected H1-HeLa cells.
Data set [2] addresses T2, recombinant rhinovirus 3C protease, serotype 16 (Human rhinovirus 16, UniProt Q82122).
T2 construct: Recombinant rhinovirus 3C proteases; made in house
Briefly: Inhibition of rhinovirus 3C protease (FRET assay), serotype 16. In kind it is biochemical. Conditions: HRV-16 3C protease. As to the method: as §1

Data set [3] deals with T3, recombinant rhinovirus 3C protease, serotype 2 (Human rhinovirus 2, UniProt P04936).
T3 construct: Recombinant rhinovirus 3C proteases; made in house
T3 sequence (P04936 1508-1690): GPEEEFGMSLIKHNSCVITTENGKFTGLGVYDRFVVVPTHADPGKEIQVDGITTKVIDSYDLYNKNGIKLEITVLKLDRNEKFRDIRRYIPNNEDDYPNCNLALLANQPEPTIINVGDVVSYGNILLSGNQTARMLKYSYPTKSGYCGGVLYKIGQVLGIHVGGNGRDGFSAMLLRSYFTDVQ
Briefly: Inhibition of rhinovirus 3C protease (FRET assay), serotype 2. In kind it is biochemical. Conditions: HRV-2 3C protease. As to the method:
as §1

The target in data set [4] is T4, rhinovirus 3C protease, HRV-89 (Human rhinovirus A serotype 89, UniProt P07210).
T4 construct: Recombinant rhinovirus 3C proteases
T4 sequence (P07210 1522-1704): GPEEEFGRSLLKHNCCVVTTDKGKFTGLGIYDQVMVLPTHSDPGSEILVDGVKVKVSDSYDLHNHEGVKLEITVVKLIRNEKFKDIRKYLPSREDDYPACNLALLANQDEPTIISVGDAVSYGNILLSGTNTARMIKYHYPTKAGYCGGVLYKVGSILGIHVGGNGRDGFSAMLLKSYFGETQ
Description: Inhibition of rhinovirus 3C protease (FRET assay), serotype 89. In kind it is biochemical, human rhinovirus 89. Conditions: HRV-89 3C protease.

The next data set relates to HRV-89. Briefly: Antirhinoviral H1-HeLa cell culture assay (XTT), HRV-89. Conditions: Rhinovirus A, HRV89, HRV-89, H1-HeLa cells. In kind it is cell-based, human rhinovirus. From the text:
(§2) (1989), vol. 81, 577-586.

Another data set deals with H1-HeLa cells. Description: Cytotoxicity in mock-infected H1-HeLa cells (antirhinoviral assay, XTT).
A further data set has as its system HRV-1A. Briefly: Antirhinoviral H1-HeLa cell culture assay (XTT), HRV-1A. In kind it is cell-based, human rhinovirus. Conditions: Rhinovirus A, HRV1A, H1-HeLa cells.
Description: as §2

For a further data set, the system named is HRV-10. Description: Antirhinoviral H1-HeLa cell culture assay (XTT), HRV-10. In kind it is cell-based. Conditions: Human rhinovirus sp., HRV10, HRV-10, H1-HeLa cells.
Description: as §2

A further data set concerns CVB3. Description: Anticoxsackieviral cell culture assay (XTT), CVB3. In kind it is cell-based, coxsackievirus B3. Conditions: Enterovirus B, 24 h; CVB3, H1-HeLa cells, m.o.i. 0.075, one day.
In a further data set the test system is CAV-21. Briefly: Anticoxsackieviral cell culture assay (XTT), CAV-21. In kind it is cell-based, coxsackievirus A21. Conditions: Enterovirus C, 48 h; CAV-21, H1-HeLa cells, m.o.i. 0.025, two days.
The test system of a further data set is ECHO 11. Briefly: Anti-echoviral cell culture assay (XTT), ECHO 11 in MRC-5 cells. In kind it is cell-based, echovirus 11. Conditions: Enterovirus B, MRC5, 96 h; ECHO-11, MRC-5 cells, four days. On the procedure: (§3) Echovirus type 11 (ECHO 11) was purchased from ATCC (Rockville, Md.). Virus stocks were propagated and antiviral assays were performed in MRC-5 cells (ATCC).

Data set [5] can be described thus: Cytotoxicity in uninfected H1-HeLa cells (anticoxsackieviral assay, XTT). In kind it is cell-based. Conditions: human.
The nature of data set [6]: Cytotoxicity in uninfected MRC-5 cells (anti-echoviral assay, XTT). Conditions: human, ECHO-11 row. In kind it is cell-based. On the procedure: as §3
The subject of the next data set is HRV-16. Description: Antirhinoviral H1-HeLa cell culture assay (XTT), HRV-16. In kind it is cell-based. Conditions: Human rhinovirus sp., HRV16, HRV-16, H1-HeLa cells.
Description: as §2

Where [7] appears, read: Rhinovirus B, HRV14, HRV-14, H1-HeLa cells.

T1 sequence (P03303 1538-1719): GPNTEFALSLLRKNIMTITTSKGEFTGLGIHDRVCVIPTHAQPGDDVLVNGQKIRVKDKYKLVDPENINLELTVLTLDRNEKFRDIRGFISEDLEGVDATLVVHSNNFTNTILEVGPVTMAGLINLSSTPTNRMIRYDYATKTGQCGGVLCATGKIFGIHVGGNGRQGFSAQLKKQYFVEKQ
T2 sequence (Q82122 1511-1693): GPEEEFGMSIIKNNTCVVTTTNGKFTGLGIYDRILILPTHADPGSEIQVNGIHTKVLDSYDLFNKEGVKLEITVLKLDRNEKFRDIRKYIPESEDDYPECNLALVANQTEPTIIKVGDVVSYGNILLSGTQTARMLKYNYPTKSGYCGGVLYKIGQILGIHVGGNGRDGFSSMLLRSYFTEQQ

The Ki is the equilibrium dissociation constant of an inhibitor or competing ligand from its target. As usually defined, the EC50 is the midpoint of the concentration-response curve. High values mean lower potency in that assay, low ones higher potency in that assay. One may read the melting point as the temperature, or range, at which the solid turns liquid. By CC50 is commonly meant the concentration giving 50% cytotoxicity. As for `CC(C)C[C@H](NC(=O)OCc1ccccc1)C(=O)N[C@@H](Cc1ccccc1)C(=O)N[C@@H](C[C@@H]1CCNC1=O)C(=O)c1nccs1` [Compound 22, Cbz-L-Leu-L-Phe-L-[(S)-Pyrrol-Ala]-2-Thiazole], the melting point was 83 to 85 °C. Besides, in data set [1], the inhibition constant (Ki) is 0.7 µM. The same molecule came in with an EC50 in the data set with HRV-14 (setting [7]) of 7.9 µM. The molecule also had a CC50 at 2 days in the data set “in vitro” of 240 µM.

`C#CC(=O)[C@H](CNC(C)=O)NC(=O)[C@H](Cc1ccccc1)NC(=O)[C@H](CC(C)C)NC(=O)OCc1ccccc1` [Compound 14, Cbz-L-Leu-L-Phe-L-(N-Ac-amino-Ala)-C≡CH]: the Ki in data set [1] is 0.065 µM; in [2], 0.322 µM; in [3], 0.124 µM; in data set [4], 0.76 µM. For the same molecule, the EC50 in the data set with HRV-14 (setting [7]) and in the data set with HRV-89 was greater than 100 µM in each case. In the data set “in vitro”, this molecule displayed a CC50 at 2 days greater than 100 µM. Further, the CC50 with H1-HeLa cells (HRV-89 row) is greater than 100 µM.

Regarding `CC(C)C[C@H](NC(=O)OCc1ccccc1)C(=O)N[C@@H](Cc1ccccc1)C(=O)N[C@@H](C[C@@H]1CCNC1=O)C(=O)c1nc2ccccc2s1` [Compound 21, Cbz-L-Leu-L-Phe-L-[(S)-Pyrrol-Ala]-2-Benzthiazole], the melting point was 108 to 111 °C. Moreover, in data set [1], the Ki came to 0.065 µM. The molecule also showed an EC50 in the data set on HRV-14 (setting [7]) of 3.2 µM. The molecule also returned a CC50 at 2 days in the data set “in vitro” greater than 320 µM.

Regarding `CC(=O)NC[C@H](NC(=O)[C@H](Cc1ccccc1)NC(=O)[C@H](CC(C)C)NC(=O)OCc1ccccc1)C(=O)COCCc1ccccc1` [Compound 18, Cbz-L-Leu-L-Phe-L-(N-Ac-amino-Ala)-CH2OCH2CH2Ph], the Ki in [1] stood at 9.1 µM; in [2] it was 6.7 µM; in [3], 11 µM; in [4], 14 µM. The EC50 in the data set on HRV-14 (setting [7]) was greater than 20 µM. The molecule also displayed a CC50 at 2 days in the data set “in vitro” of 20 µM.

For `Cc1cc(C(=O)N[C@H](C(=O)N[C@@H](Cc2ccc(F)cc2)C(=O)N[C@@H](C[C@@H]2CCNC2=O)C(=O)c2nc3ccccc3s2)C(C)C)no1` [Compound 28, (5-Methylisoxazole-3-carboxyl)-L-Val-L-Phe(4-F)-L-[(S)-Pyrrol-Ala]-2-Benzthiazole], in [1], the Ki was determined as 0.0045 µM. For the same molecule, the EC50 in the data set with HRV-14 (setting [7]) was determined as 0.335 µM; with HRV-1A, 0.337 µM; in the data set on HRV-10, 0.253 µM; in the data set on CVB3 it was 5.79 µM; in the data set on CAV-21, 4.67 µM; in the data set with ECHO 11, 0.821 µM. Moreover, the CC50 at 2 days (in [5] (CAV-21); in “in vitro”) was 251 µM throughout. Further, the CC50 at 1 day in data set [5] (CVB3) is 251 µM. The CC50 at 4 days in data set [6] is 251 µM.

In the case of `CC(=O)NC[C@H](NC(=O)[C@H](Cc1ccccc1)NC(=O)[C@H](CC(C)C)NC(=O)OCc1ccccc1)C(=O)c1nc2ccccc2s1` [Compound 9, Cbz-L-Leu-L-Phe-L-(N-Ac-amino-Ala)-2-Benzthiazole], the Ki was found to be 1.7 µM in data set [1], 0.31 µM in [2], 0.9 µM in data set [3] and 0.48 µM in data set [4]. The EC50 in the data set with HRV-14 (setting [7]) and with HRV-16 was greater than 25 µM in each case. Further, the CC50 at 2 days in the data set “in vitro” was determined as 25 µM.

In the data set on HRV-14 (HRV-14, H1-HeLa cells), `Cc1cc(CCCCCCCOc2ccc(C3=N[C@@H](C)CO3)cc2)on1` [WIN52084, reference compound] came in with an EC50 of 0.07 µM. In the data set with H1-HeLa cells (HRV-14), this molecule gave a CC50 greater than 10 µM.

In the data set on HRV-14 (HRV-14, H1-HeLa cells), `Cc1cc(CCCCCOc2c(Cl)cc(C3=NCCO3)cc2Cl)on1` [WIN54954, reference compound] displayed an EC50 of 2.13 µM. This molecule also had a CC50 with H1-HeLa cells (HRV-14) greater than 63 µM.

As for `Cc1cc(CCCCCCCOc2ccc(C3=NCCO3)cc2)on1` [WIN51711, reference compound], the EC50 with HRV-14 (HRV-14, H1-HeLa cells) stood at 0.78 µM. In the data set with H1-HeLa cells (HRV-14), the CC50 was greater than 60 µM.
